Where two headings read alike, the source gives them in different places.
Assays:
Format in all cases: biochemical
[1] = target: T1, EPH-B1 (Homo sapiens, UniProt P54762); experiment: Kinase profiling EPH-B1; conditions: for remaining activity at 100 µM: read-out: residual kinase activity, EPH-B1
T1 sequence (P54762 18-984): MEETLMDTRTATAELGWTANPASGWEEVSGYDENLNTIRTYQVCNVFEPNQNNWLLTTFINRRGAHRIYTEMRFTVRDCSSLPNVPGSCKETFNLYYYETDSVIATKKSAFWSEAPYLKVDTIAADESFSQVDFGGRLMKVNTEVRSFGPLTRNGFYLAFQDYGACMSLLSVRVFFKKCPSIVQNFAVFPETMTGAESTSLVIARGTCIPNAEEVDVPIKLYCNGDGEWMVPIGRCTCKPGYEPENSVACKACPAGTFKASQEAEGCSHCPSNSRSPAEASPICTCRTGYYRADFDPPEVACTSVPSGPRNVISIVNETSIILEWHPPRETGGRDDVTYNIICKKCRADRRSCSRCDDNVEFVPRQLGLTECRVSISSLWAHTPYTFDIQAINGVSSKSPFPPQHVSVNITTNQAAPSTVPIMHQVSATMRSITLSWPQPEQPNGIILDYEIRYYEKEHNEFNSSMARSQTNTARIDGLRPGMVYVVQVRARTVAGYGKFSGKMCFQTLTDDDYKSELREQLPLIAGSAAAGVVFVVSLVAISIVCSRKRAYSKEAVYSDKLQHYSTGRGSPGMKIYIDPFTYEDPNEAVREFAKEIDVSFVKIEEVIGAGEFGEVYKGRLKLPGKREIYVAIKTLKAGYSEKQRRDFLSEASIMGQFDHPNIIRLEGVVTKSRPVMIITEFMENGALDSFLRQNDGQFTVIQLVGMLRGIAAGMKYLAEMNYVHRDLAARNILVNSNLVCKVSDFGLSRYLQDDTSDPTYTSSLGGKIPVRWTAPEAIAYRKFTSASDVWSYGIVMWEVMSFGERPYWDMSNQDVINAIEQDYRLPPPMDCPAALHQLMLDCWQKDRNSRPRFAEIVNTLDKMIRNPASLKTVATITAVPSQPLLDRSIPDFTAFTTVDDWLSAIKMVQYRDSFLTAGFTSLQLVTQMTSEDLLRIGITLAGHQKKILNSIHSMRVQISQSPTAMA
Source text: (§1) Any value less that 25 is considered to be highly significant inhibition.

[2] = target: SIK3 (Homo sapiens, UniProt Q9Y2K2); experiment: Kinase profiling SIK3; conditions: for remaining activity at 100 µM: read-out: residual kinase activity, SIK3
Source text: as §1

[3] = target: MST4 (Homo sapiens, UniProt Q9P289); experiment: Kinase profiling MST4; conditions: for remaining activity at 100 µM: read-out: residual kinase activity, MST4
Source text: as §1

[4] = target: DAPK1 (Homo sapiens, UniProt P53355); experiment: Kinase profiling DAPK1; conditions: for remaining activity at 100 µM: read-out: residual kinase activity, DAPK1
Source text: as §1

[5] = target: T2, ULK1 (Homo sapiens, UniProt O75385); experiment: Kinase profiling ULK1; conditions: for remaining activity at 100 µM: read-out: residual kinase activity, ULK1
T2 sequence (O75385 1-1050): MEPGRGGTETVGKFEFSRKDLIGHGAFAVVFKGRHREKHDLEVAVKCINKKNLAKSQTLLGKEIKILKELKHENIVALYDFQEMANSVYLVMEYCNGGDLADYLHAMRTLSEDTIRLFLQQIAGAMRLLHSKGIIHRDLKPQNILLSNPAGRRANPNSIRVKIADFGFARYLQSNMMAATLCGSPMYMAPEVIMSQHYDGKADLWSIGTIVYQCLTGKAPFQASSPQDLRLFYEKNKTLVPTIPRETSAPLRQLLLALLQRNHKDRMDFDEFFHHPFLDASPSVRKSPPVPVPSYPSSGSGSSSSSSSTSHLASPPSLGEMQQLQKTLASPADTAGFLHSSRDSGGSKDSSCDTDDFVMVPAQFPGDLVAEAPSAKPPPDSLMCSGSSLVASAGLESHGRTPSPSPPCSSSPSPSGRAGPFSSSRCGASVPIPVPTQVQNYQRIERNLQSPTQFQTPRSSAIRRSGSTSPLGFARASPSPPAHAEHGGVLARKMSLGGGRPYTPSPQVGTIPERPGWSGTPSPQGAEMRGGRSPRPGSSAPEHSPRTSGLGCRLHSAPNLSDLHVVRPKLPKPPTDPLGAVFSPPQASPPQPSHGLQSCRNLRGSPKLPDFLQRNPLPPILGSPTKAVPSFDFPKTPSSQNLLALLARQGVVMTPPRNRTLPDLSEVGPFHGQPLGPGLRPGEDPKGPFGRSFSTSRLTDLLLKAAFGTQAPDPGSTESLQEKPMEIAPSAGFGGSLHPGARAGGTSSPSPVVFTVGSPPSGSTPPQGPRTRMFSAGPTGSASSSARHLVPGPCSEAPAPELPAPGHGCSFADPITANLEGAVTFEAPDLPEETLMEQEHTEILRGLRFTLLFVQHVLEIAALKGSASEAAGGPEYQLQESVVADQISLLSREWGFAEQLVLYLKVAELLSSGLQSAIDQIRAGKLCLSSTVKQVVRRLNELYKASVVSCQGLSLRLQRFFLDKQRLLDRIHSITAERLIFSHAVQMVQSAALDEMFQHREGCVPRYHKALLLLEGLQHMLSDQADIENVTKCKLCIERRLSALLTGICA
Source text: as §1

[6] = 100 micromolar inhibitor concentration, 100 is no change
[7] = 100 micromolar inhibitor, 100 = no change

Chain of DAPK1 (P53355 whole entry, species assumed): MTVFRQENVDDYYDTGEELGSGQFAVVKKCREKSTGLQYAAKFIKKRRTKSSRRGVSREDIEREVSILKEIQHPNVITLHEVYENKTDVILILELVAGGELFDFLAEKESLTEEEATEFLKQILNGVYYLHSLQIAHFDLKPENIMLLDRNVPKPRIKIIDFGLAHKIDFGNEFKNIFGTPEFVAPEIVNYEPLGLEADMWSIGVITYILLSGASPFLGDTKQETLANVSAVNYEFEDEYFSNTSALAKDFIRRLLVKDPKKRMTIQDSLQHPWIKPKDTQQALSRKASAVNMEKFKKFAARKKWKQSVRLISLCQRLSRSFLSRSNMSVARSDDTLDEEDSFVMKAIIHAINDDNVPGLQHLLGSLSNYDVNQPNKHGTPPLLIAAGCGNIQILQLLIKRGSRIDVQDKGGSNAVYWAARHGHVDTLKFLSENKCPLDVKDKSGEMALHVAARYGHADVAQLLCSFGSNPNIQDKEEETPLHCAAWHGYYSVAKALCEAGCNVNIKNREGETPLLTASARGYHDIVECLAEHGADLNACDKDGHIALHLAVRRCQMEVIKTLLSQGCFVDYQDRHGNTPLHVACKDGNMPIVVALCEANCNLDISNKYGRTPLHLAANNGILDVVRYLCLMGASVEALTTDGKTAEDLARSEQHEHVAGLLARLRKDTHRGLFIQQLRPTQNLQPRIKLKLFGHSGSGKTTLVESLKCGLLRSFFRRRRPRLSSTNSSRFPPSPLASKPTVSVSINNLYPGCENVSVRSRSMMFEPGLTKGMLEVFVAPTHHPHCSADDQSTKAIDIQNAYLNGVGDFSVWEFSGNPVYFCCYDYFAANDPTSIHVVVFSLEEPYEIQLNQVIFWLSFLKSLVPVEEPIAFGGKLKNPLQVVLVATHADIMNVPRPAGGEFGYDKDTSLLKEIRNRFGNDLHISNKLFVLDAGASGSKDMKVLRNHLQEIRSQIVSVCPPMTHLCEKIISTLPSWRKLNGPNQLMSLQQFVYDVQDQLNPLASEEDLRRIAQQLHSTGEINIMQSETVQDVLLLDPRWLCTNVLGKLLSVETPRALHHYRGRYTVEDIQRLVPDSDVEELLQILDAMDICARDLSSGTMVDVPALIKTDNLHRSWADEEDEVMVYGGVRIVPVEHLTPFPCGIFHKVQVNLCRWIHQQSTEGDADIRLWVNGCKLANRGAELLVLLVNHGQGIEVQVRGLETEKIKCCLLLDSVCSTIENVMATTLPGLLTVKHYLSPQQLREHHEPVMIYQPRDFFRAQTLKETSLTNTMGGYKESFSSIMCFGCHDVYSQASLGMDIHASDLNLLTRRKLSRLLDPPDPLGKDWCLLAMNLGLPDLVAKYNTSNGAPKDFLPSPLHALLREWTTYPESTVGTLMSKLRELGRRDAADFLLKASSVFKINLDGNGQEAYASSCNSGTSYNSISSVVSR
Chain of MST4 (Q9P289 whole entry, species assumed): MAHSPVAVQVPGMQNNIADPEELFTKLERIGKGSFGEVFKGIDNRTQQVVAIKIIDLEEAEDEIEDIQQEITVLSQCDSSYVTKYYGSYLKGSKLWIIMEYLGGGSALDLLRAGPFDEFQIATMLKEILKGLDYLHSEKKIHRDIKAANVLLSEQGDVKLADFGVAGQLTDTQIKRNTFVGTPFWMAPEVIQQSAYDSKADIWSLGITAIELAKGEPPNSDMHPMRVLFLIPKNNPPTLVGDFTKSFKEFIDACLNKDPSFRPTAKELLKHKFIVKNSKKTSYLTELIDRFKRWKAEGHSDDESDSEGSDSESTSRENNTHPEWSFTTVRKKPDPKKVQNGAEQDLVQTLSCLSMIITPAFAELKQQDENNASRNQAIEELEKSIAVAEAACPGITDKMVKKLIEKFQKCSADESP
Chain of SIK3 (Q9Y2K2 whole entry, species assumed): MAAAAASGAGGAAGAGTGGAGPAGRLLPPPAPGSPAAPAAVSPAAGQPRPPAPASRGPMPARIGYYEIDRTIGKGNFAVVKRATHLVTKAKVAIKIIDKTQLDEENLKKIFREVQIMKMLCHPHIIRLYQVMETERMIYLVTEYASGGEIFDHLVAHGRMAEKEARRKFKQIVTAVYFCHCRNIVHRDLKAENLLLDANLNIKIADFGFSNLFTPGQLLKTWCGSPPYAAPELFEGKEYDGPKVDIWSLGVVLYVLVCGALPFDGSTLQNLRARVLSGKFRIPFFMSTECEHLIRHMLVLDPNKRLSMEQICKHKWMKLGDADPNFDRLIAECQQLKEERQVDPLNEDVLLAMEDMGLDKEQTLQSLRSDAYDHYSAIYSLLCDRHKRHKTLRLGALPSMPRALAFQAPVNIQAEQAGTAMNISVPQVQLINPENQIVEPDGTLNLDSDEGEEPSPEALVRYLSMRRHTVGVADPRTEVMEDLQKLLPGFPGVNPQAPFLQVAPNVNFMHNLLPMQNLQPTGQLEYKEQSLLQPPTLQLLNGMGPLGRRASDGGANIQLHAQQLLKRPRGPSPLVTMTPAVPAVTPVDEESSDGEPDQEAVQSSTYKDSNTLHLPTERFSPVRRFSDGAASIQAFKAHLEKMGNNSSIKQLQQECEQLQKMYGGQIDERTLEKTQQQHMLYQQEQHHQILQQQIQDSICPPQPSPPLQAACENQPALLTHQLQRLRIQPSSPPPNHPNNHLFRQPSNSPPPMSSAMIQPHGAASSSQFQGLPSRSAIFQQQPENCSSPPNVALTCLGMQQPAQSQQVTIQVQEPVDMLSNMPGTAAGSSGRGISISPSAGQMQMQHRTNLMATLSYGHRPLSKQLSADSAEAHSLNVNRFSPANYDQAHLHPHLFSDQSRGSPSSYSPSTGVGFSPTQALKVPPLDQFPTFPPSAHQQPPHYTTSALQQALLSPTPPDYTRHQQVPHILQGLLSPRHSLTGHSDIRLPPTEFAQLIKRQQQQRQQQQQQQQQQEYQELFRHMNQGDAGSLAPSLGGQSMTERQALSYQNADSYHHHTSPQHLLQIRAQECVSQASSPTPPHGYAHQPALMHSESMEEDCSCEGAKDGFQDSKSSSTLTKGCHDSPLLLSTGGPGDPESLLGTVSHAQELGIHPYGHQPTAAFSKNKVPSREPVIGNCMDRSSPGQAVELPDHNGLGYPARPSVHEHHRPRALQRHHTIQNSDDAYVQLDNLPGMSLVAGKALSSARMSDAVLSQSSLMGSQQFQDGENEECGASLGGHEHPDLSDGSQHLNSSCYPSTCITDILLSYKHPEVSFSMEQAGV

Compound	remaining activity at 100 µM [1, 6]	remaining activity at 100 µM [2, 6]	remaining activity at 100 µM [3, 6]	remaining activity at 100 µM [4, 6]	residual kinase activity, EPH-B1 [1, 6]	residual kinase activity, SIK3 [2, 6]	residual kinase activity, MST4 [3, 6]	residual kinase activity, DAPK1 [4, 6]	residual kinase activity, ULK1 [5, 6]	other results
CC(=O)Nc1nc2cc(O)ccc2s1 [Compound 01-66, N-(5-hydroxybenzo[d]thiazol-2-yl)acetamide]										remaining activity at 100 µM [1]: 93%; remaining activity at 100 µM [2]: 57%; remaining activity at 100 µM [3]: 84%; remaining activity at 100 µM [4]: 44%
CC(=O)Nc1nc2ccc(O)cc2s1 [Compound 01-71]	86%	46%	70%	21%						
CC(=O)Nc1nc2ccc(C(F)(F)F)cc2s1 [Compound 01-90]	91%	82%	89%	85%						remaining activity at 100 µM [5, 6]: 87%
CC(=O)Nc1nc2ccc(C#N)cc2s1 [Compound 01-94]	94%	73%	75%	41%						remaining activity at 100 µM [5, 6]: 92%
CC(=O)Nc1cccc(NC(=O)c2nc3ccc(O)cc3s2)c1 [Compound 03-07, N-(3-acetamidophenyl)-6-hydroxybenzo[d]thiazole-2-carboxamide]										remaining activity at 100 µM [1, 7]: 104%; remaining activity at 100 µM [2, 7]: 56%; remaining activity at 100 µM [3, 7]: 76%; remaining activity at 100 µM [4, 7]: 28%; remaining activity at 100 µM [5, 7]: 70%
O=C(Nc1nc2cc(O)ccc2s1)c1ccncc1 [Compound 03-11]					99	99	134	62	90	
O=C(Nc1nc2ccc(O)cc2s1)c1ccccn1 [Compound 03-12]					94	82	80	25	96	
O=C(Nc1nc2cc(O)ccc2s1)c1ccccn1 [Compound 03-13]					98	96	76	58	78	
COc1ccc2sc(NC(C)=O)nc2c1 [Compound 03-21]	99%	121%	88%	79%						remaining activity at 100 µM [5, 6]: 103%
CC(=O)Nc1nc2ccccc2s1 [Compound 03-32]					97	89	110	89	102	
O=C(Nc1nc2cc(O)ccc2s1)c1cccnc1 [Compound 03-33]					104	92	103	82	88	
O=C(Nc1nc2ccc(O)cc2s1)c1ccccc1 [Compound 03-60]					98	42	71	19	47	
CC(=O)Nc1nc2cc(C(F)(F)F)ccc2s1 [Compound 03-73]	114%	103%	91%	93%						remaining activity at 100 µM [5, 6]: 91%
CC(=O)Nc1nc2cc(C)ccc2s1 [Compound 03-76]					103	103	103	82	82	
CC(=O)Nc1nc2cc(F)ccc2s1 [Compound 03-77]	103%	89%	88%	82%						remaining activity at 100 µM [5, 6]: 83%
O=C(Nc1nc2ccc(O)cc2s1)c1ccncc1 [Compound 08-42]					93	67	79	32	69	
O=C(Nc1nc2ccc(O)cc2s1)c1cccnc1 [Compound 08-44]					93	80	80	26	78	
